Measurements as given in patent publication US20060069132A1, “Azolecarboxamide herbicides” (priority 2004, published 2006).

Columns and labels:
[1] = tested on: velvetleaf; experiment: Test B pre-/postemergence herbicide test; type: in vivo, Abutilon theophrasti; conditions: for Velvetleaf plant response rating: postemergence
How it was run: (§1)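 Flooded paddy rice and barnyardgrass were treated at the 2-leaf stage; upland plantings received compound either on sown seed or on 1- to 4-leaf seedlings. All were kept 13–15 days in a greenhouse and scored visually, 0–100, relative to untreated plants.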

[2] = tested on: rice; experiment: Test B flooded paddy test; type: in vivo, Oryza sativa; conditions: 1000 g ai/ha, scale 0 to 100 (0 no effect, 100 complete control)
How it was run: (§2)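 After treating 2-leaf paddy plants or 2–18 cm postemergence plants (1 to 4 leaves) with formulated chemical, researchers kept them in a greenhouse for 13–15 days. Effects were judged visually versus controls: 0 indicates none, 100 total control.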

[3] = tested on: wild oat; experiment: Test B postemergence herbicide test; type: in vivo, Avena fatua; conditions: postemergence
How it was run: as §2

[4] = tested on: barnyardgrass; experiment: Test B pre-/postemergence herbicide test; type: in vivo, Echinochloa crus-galli; conditions: for Barnyardgrass plant response rating: postemergence
How it was run: (§3)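 Herbicidal effect was judged by eye on a 0–100 scale after plants stood 13 to 15 days in the greenhouse following pre- or postemergence treatment with surfactant-containing formulations.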

[5] = tested on: barnyardgrass; experiment: Test B flooded paddy test; type: in vivo, Echinochloa crus-galli; conditions: 1000 g ai/ha, scale 0 to 100 (0 no effect, 100 complete control)
How it was run: (§4)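 Treated at 2-leaf (paddy) or 1–4-leaf, 2–18 cm (postemergence); greenhouse 13–15 d; visual score vs control, 0 none to 100 complete control; dash = not tested.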

[6] = tested on: small flower umbrella sedge; experiment: Test B flooded paddy test; type: in vivo, Cyperus difformis; conditions: 1000 g ai/ha, scale 0 to 100 (0 no effect, 100 complete control)
How it was run: as §4

[7] = tested on: lambsquarters; experiment: Test B pre-/postemergence herbicide test; type: in vivo, Chenopodium album; conditions: for Lambsquarters plant response rating: postemergence
How it was run: as §1

[8] = tested on: Surinam grass; experiment: Test B pre-/postemergence herbicide test; type: in vivo, Urochloa decumbens; conditions: for Surinam Grass plant response rating: postemergence
How it was run: as §1

[9] = tested on: pigweed; experiment: Test B pre-/postemergence herbicide test; type: in vivo, Amaranthus retroflexus; conditions: for Pigweed plant response rating: postemergence
How it was run: as §1

[10] = tested on: wheat; experiment: Test B postemergence herbicide test; type: in vivo, Triticum aestivum; set-up: key to Wheat plant response rating: 0 = no effect, 100 = complete control; conditions: postemergence
How it was run: as §2

[11] = tested on: cocklebur; experiment: Test B pre-/postemergence herbicide test; type: in vivo, Xanthium strumarium; conditions: for Cocklebur plant response rating: postemergence
How it was run: as §3

[12] = tested on: corn; experiment: Test B pre-/postemergence herbicide test; type: in vivo, Zea mays; conditions: for Corn plant response rating: postemergence
How it was run: as §1

[13] = tested on: morningglory; experiment: Test B pre-/postemergence herbicide test; type: in vivo, Ipomoea coccinea
How it was run: as §3

[14] = tested on: giant foxtail; experiment: Test B pre-/postemergence herbicide test; type: in vivo, Setaria faberi; conditions: for Foxtail, Giant plant response rating: postemergence
How it was run: as §1

[15] = tested on: large crabgrass; experiment: Test B pre-/postemergence herbicide test; type: in vivo, Digitaria sanguinalis; conditions: for Crabgrass, Large plant response rating: postemergence
How it was run: as §1

[16] = 125 g ai/ha, visual rating, scale 0 (no effect) to 100 (complete control)
[17] = 500 g ai/ha, visual rating, 0 = no effect, 100 = complete control, preemergence
[18] = 500 g ai/ha, scale 0 to 100, 0 is no effect, 100 is complete control
[19] = 125 g ai/ha, 0 = no effect, 100 = complete control, preemergence

CCNC(=O)c1cccc(NC(=O)c2cc(C3(C)CC3)nn2CC)c1 [Compound 306]
Velvetleaf plant response rating [1, 16]: 40 | Plant response rating, Velvetleaf [1, 17]: 100 | Velvetleaf plant response rating [1, 18]: 60 | Rice plant response rating [2]: 60 | Oat, Wild plant response rating [3, 16]: 20 | Oat, Wild plant response rating [3, 18]: 30 | Barnyardgrass plant response rating (0 to 100 scale) [4, 19]: 60 | Barnyardgrass plant response rating [4, 16]: 10 | Plant response rating, Barnyardgrass [4, 17]: 90 | Barnyardgrass plant response rating [4, 18]: 10 | Barnyardgrass plant response rating [5]: 80 | Sedge, Umbrella plant response rating [6]: 80 | Lambsquarters plant response rating (0 to 100 scale) [7, 19]: 100 | Lambsquarters plant response rating [7, 16]: 70 | Plant response rating, Lambsquarters [7, 17]: 100 | Lambsquarters plant response rating [7, 18]: 80 | Surinam Grass plant response rating (0 to 100 scale) [8, 19]: 30 | Surinam Grass plant response rating [8, 16]: 10 | Plant response rating, Surinam Grass [8, 17]: 90 | Surinam Grass plant response rating [8, 18]: 30 | Pigweed plant response rating (0 to 100 scale) [9, 19]: 100 | Pigweed plant response rating [9, 16]: 70 | Plant response rating, Pigweed [9, 17]: 100 | Pigweed plant response rating [9, 18]: 100 | Wheat plant response rating [10, 16]: 10 | Wheat plant response rating [10, 18]: 20 | Cocklebur plant response rating (0 to 100 scale) [11, 19]: 0 | Cocklebur plant response rating [11, 16]: 30 | Plant response rating, Cocklebur [11, 17]: 50 | Cocklebur plant response rating [11, 18]: 70 | Corn plant response rating (0 to 100 scale) [12, 19]: 70 | Corn plant response rating [12, 16]: 30 | Plant response rating, Corn [12, 17]: 100 | Corn plant response rating [12, 18]: 30 | Morningglory plant response rating (0 to 100 scale) [13, 19]: 10 | Plant response rating, Morningglory [13, 17]: 10 | Morningglory plant response rating ([13]; postemergence, 500 g ai/ha, scale 0 to 100, 0 is no effect, 100 is complete control): 70 | Foxtail, Giant plant response rating (0 to 100 scale) [14, 19]: 40 | Foxtail, Giant plant response rating [14, 16]: 10 | Plant response rating, Foxtail, Giant [14, 17]: 100 | Foxtail, Giant plant response rating [14, 18]: 40 | Crabgrass, Large plant response rating (0 to 100 scale) [15, 19]: 100 | Crabgrass, Large plant response rating [15, 16]: 10 | Plant response rating, Crabgrass, Large [15, 17]: 100 | Crabgrass, Large plant response rating [15, 18]: 50
